Experimental data taken from ChEMBL document CHEMBL1201862, “PubChem BioAssay data set” (2004).
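Each compound was tested at five concentrations against cells in 96-well plates for 48 hours. GI50: concentration for 50% inhibition of growth.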 Active and inactive are the calls of the source. Rule as the data show it: active = GI50 up to about 1.1 µM and inactive = higher.

How the values were obtained:
Test in all cases: DTP human tumour cell line panel, 48 h
DU-145 = tested on: DU-145
SNB-19 = tested on: SNB-19
BT-549 = tested on: BT-549
CCRF-CEM = tested on: CCRF-CEM
IGROV-1 = tested on: IGROV-1
T47D = tested on: T47D
NCI-H226 = tested on: NCI-H226
MDA-N = tested on: MDA-N
MDA-MB-435 = tested on: MDA-MB-435
SK-MEL-5 = tested on: SK-MEL-5
HL-60 = tested on: HL-60
OVCAR-8 = tested on: OVCAR-8
SF-268 = tested on: SF-268
RPMI-8226 = tested on: RPMI-8226
COLO 205 = tested on: COLO 205
KM12 = tested on: KM12
786-0 = tested on: 786-0
NCI-H23 = tested on: NCI-H23
K562 = tested on: K562

| SMILES | GI50 (DU-145) | GI50 (SNB-19) | GI50 (BT-549) | GI50 (CCRF-CEM) | GI50 (IGROV-1) | GI50 (T47D) | GI50 (NCI-H226) | GI50 (MDA-N) | GI50 (MDA-MB-435) | GI50 (SK-MEL-5) | GI50 (HL-60) | GI50 (OVCAR-8) | GI50 (SF-268) | GI50 (RPMI-8226) | GI50 (COLO 205) | GI50 (KM12) | GI50 (786-0) | GI50 (NCI-H23) | GI50 (K562) |
| --- | --- | --- | --- | --- | --- | --- | --- | --- | --- | --- | --- | --- | --- | --- | --- | --- | --- | --- | --- |
| O=c1[nH]c2c(Nc3c4ccccc4nc4ccccc34)c([N+](=O)[O-])c(Nc3c4ccccc4nc4ccccc34)c([N+](=O)[O-])c2[nH]1 | 2.67 µM (inactive) | 2.64 µM (inactive) | 3.51 µM (inactive) | 0.855 µM (active) | 1.69 µM (inactive) | 3.29 µM (inactive) | 2.68 µM (inactive) | 2.36 µM (inactive) | 2.15 µM (inactive) | 2.11 µM (inactive) | 2.67 µM (inactive) | 1.21 µM (inactive) | 1.98 µM (inactive) | 0.514 µM (active) | 1.37 µM (inactive) | 2.14 µM (inactive) | 1.2 µM (inactive) | 1.26 µM (inactive) | 2.59 µM (inactive) |
| COc1ccccc1C1C2=C(COC2=O)OC(C)(C)Oc2cc3c(cc21)OCO3 (centres undefined) | 3.57 µM (inactive) | 3.8 µM (inactive) | > 10 µM (inactive) | 4.06 µM (inactive) | 5.35 µM (inactive) | 5.93 µM (inactive) | 10.3 µM (inactive) | 0.65 µM (active) | 0.564 µM (active) | 3.36 µM (inactive) | 1.35 µM (inactive) | 5.12 µM (inactive) | 7.4 µM (inactive) | 4.03 µM (inactive) | 1.04 µM (active) | 1.11 µM (active) | 3.83 µM (inactive) | 3.89 µM (inactive) | 1.34 µM (inactive) |
| Oc1ccc2ccccc2c1/N=N/c1ccc(Br)cc1 | > 100 µM (inactive) | > 100 µM (inactive) | > 100 µM (inactive) | > 100 µM (inactive) | 36.1 µM (inactive) | > 100 µM (inactive) | 66.7 µM (inactive) | > 100 µM (inactive) | > 100 µM (inactive) | > 100 µM (inactive) | > 100 µM (inactive) | > 100 µM (inactive) | 23.6 µM (inactive) | > 100 µM (inactive) | > 100 µM (inactive) | 77.6 µM (inactive) | > 100 µM (inactive) | > 100 µM (inactive) | > 100 µM (inactive) |
| COc1cccc2c1/c(=C/c1ccc(N(C)C)cc1)c1cc(-c3ccccc3)[n+](C)n12 | 0.0986 µM (active) | 0.0933 µM (active) | 0.0875 µM (active) | 0.0571 µM (active) | 0.083 µM (active) | 0.0964 µM (active) | 0.177 µM (active) | 0.0826 µM (active) | 0.0773 µM (active) | 0.155 µM (active) | 0.0155 µM (active) | 0.0446 µM (active) | 0.109 µM (active) | 0.0202 µM (active) | 0.0272 µM (active) | 0.107 µM (active) | 0.074 µM (active) | 0.131 µM (active) | 0.0493 µM (active) |
| CC(=O)OCC1OC(n2c3c(c(-c4ccc(C)cc4)c(C#N)c2=S)C(=O)CC(C)(C)C3)C(OC(C)=O)C(OC(C)=O)C1OC(C)=O (centres undefined) | 50.4 µM (inactive) | > 100 µM (inactive) | 19.3 µM (inactive) | 31.6 µM (inactive) | 50.1 µM (inactive) | > 10 µM (inactive) | 23.3 µM (inactive) | 15.7 µM (inactive) | 27 µM (inactive) | 26.9 µM (inactive) | 23.5 µM (inactive) | 36.4 µM (inactive) | 28.6 µM (inactive) | 27.5 µM (inactive) | 37.3 µM (inactive) | 36.4 µM (inactive) | 33.7 µM (inactive) | 42.8 µM (inactive) | 22.7 µM (inactive) |
| O=c1oc2ccccc2cc1-c1csc(Nc2ccc(F)cc2)n1 | 2.89 µM (inactive) | 8.15 µM (inactive) | 6.47 µM (inactive) | 2.77 µM (inactive) | 4.99 µM (inactive) | 2.3 µM (inactive) | 3.1 µM (inactive) | 4.66 µM (inactive) | 4.32 µM (inactive) | 10.4 µM (inactive) | 4.59 µM (inactive) | 2.77 µM (inactive) | 3.15 µM (inactive) | 0.216 µM (active) | 4.47 µM (inactive) | 5.5 µM (inactive) | 1.79 µM (inactive) | 2.9 µM (inactive) | 2.56 µM (inactive) |
| CCNC(C)(C)C(SS)c1ccc(Br)cc1 (centres undefined) | > 100 µM (inactive) | > 100 µM (inactive) | > 100 µM (inactive) | 20.3 µM (inactive) | > 100 µM (inactive) | 24 µM (inactive) | > 100 µM (inactive) | 45.6 µM (inactive) | 34.8 µM (inactive) | 91.4 µM (inactive) | 21.9 µM (inactive) | > 100 µM (inactive) | 60.8 µM (inactive) | 27.8 µM (inactive) | 62.1 µM (inactive) | > 100 µM (inactive) | 21.3 µM (inactive) | > 100 µM (inactive) | 36.1 µM (inactive) |
| O=C1OC(c2ccc(Cl)cc2)=N/C1=C\c1ccccc1 | > 100 µM (inactive) | > 100 µM (inactive) | > 100 µM (inactive) | 39.5 µM (inactive) | > 100 µM (inactive) | > 100 µM (inactive) | > 100 µM (inactive) | > 100 µM (inactive) | > 100 µM (inactive) | > 100 µM (inactive) | 62.7 µM (inactive) | > 100 µM (inactive) | > 100 µM (inactive) | 46.6 µM (inactive) | > 100 µM (inactive) | > 100 µM (inactive) | > 100 µM (inactive) | > 100 µM (inactive) | > 100 µM (inactive) |
| O=C1C(=C(C(=O)c2ccccc2)C(=O)c2ccccc2)OC(c2ccccc2)=C1C(=O)c1ccccc1 | 9.06 µM (inactive) | 10.2 µM (inactive) | 3.01 µM (inactive) | 1.78 µM (inactive) | 0.164 µM (active) | 12 µM (inactive) | 3.74 µM (inactive) | 6.47 µM (inactive) | 8.2 µM (inactive) | 7.14 µM (inactive) | 6.84 µM (inactive) | 4.15 µM (inactive) | 3.8 µM (inactive) | 5.56 µM (inactive) | 12.8 µM (inactive) | 5.5 µM (inactive) | 3.51 µM (inactive) | 6.1 µM (inactive) | 6.03 µM (inactive) |
| CCN(CC)C(=S)Oc1cc2oc(=O)cc(C)c2cc1Cl | > 100 µM (inactive) | 66.5 µM (inactive) | > 100 µM (inactive) | > 100 µM (inactive) | > 100 µM (inactive) | 54 µM (inactive) | > 100 µM (inactive) | > 100 µM (inactive) | > 100 µM (inactive) | > 100 µM (inactive) | > 100 µM (inactive) | > 100 µM (inactive) | 36.1 µM (inactive) | > 100 µM (inactive) | > 100 µM (inactive) | > 100 µM (inactive) | > 100 µM (inactive) | > 100 µM (inactive) | > 100 µM (inactive) |
| C=C1C(=O)OC2/C=C(/C)C(OC(C)=O)C/C=C(\C)C(OC(=O)C3(C)OC3C)C(O)C12 (centres undefined) | > 100 µM (inactive) | > 100 µM (inactive) | 65.6 µM (inactive) | 34 µM (inactive) | > 100 µM (inactive) | > 100 µM (inactive) | > 100 µM (inactive) | > 100 µM (inactive) | > 100 µM (inactive) | > 100 µM (inactive) | 30.3 µM (inactive) | > 100 µM (inactive) | > 100 µM (inactive) | 43.9 µM (inactive) | 55.7 µM (inactive) | > 100 µM (inactive) | 47.4 µM (inactive) | > 100 µM (inactive) | 40.8 µM (inactive) |
